Laboratory results published in US20230065953A1, “NOVEL HETEROARYL-TRIAZOLE COMPOUNDS AS PESTICIDES” (Bayer Aktiengesellschaft, priority 2019, published 2023).

What was measured:
Assay type in all cases: in vivo
[1] = tested on: adult engorged female ticks (Rhipicephalus microplus); experiment: Rhipicephalus (Boophilus) microplus injection test; settings: 168 h, 4 μg/animal, egg deposition after 7 days, read-out: efficacy (infertile eggs)
Procedure: Rhipicephalus (Boophilus) Microplus—Injection Test
(§1) Solvent: dimethyl sulfoxide
To produce a suitable preparation of active compound, 10 mg of active compound are dissolved in 0.5 mL solvent, and the concentrate is diluted with solvent to the desired concentration.
Five adult engorged female ticks (Rhipicephalus microplus) are injected with 1 μL compound solution into the abdomen. The ticks are transferred into replica plates and incubated in a climate chamber.
After 7 days egg deposition of fertile eggs is monitored. Eggs where fertility is not visible are stored in a climate chamber till hatching after about 42 days. An efficacy of 100% means all eggs are infertile; 0% means all eggs are fertile.

[2] = tested on: adult unfed cat fleas (Ctenocephalides felis); experiment: Ctenocephalides felis oral test; settings: 48 h
Procedure: Ctenocephalides felis—Oral Test
as §1
To produce a suitable preparation of active compound, 10 mg of active compound are dissolved in 0.5 mL solvent, and the concentrate is diluted with cattle blood to the desired concentration.
Approximately 20 adult unfed cat fleas (Ctenocephalides felis) are placed in flea chambers. The blood chamber, sealed with parafilm on the bottom, are filled with cattle blood supplied with compound solution and placed on the gauze covered top of the flea chamber, so that the fleas are able to suck the blood. The blood chamber is heated to 37° C. whereas the flea chamber is kept at room temperature.
After 2 days mortality in % is determined. 100% means all the fleas have been killed; 0% means none of the fleas have been killed.

[3] = tested on: larvae of the banded cucumber beetle (Diabrotica balteata); experiment: Diabrotica balteata spray test; settings: 168 h, 100 g/ha (=32 μg/well), wheat seeds, after 7 days, read-out: efficacy (seedling growth)
Procedure: Diabrotica Balteata—Spray Test
• Solvent: 78.0 parts by weight of acetone • 1.5 parts by weight of dimethylformamide • Emulsifier: alkylarylpolyglycol ether
Further test concentrations are prepared by dilution with emulsifier containing water.
Soaked wheat seeds (Triticum aestivum) are placed in a multiple well plate filled with agar and some water and are incubated for 1 day to germinate (5 seeds per well). The germinated wheat seeds are sprayed with a test solution containing the desired concentration of the active ingredient. Afterwards each unit is infected with 10-20 larvae of the banded cucumber beetle (Diabrotica balteata).
After 7 days efficacy in % is determined.

[4] = tested on: green peach aphid (Myzus persicae); experiment: Myzus persicae oral test; settings: 120 h
Procedure: Myzus persicae—oral test • Solvent: 100 parts by weight acetone
To produce a suitable preparation of active compound, 1 part by weight of active compound is mixed with the stated amount of solvent, and the concentrate is diluted with water to the desired concentration. 50 μL compound solution is filled in microtiter plates and 150 μL IPL41 insect medium (33%+15% sugar) is added to obtain a total volume of 200 μL per well. Afterwards the plates are sealed with parafilm through which a mixed population of the green peach aphid (Myzus persicae) can suck on the compound preparation.
(§2) After 5 days mortality in % is determined. 100% means all aphids have been killed and 0% means none of the aphids have been killed.

[5] = tested on: fall armyworm larvae (Spodoptera frugiperda); experiment: Spodoptera frugiperda spray test (maize leaf sections); settings: 168 h
Procedure: Spodoptera frugiperda—Spray Test • Solvent: 78.0 parts by weight acetone • 1.5 parts by weight dimethylformamide • Emulsifier: alkylarylpolyglycol ether
(§3) To produce a suitable preparation of active compound, 1 part by weight of active compound is mixed with the stated amount of solvents and is diluted with water, containing an emulsifier concentration of 1000 ppm, to the desired concentration. Further test concentrations are prepared by dilution with emulsifier containing water.
Maize (Zea mays) leaf sections are sprayed with a preparation of the active ingredient of the desired concentration. Once dry, the leaf sections are infested with fall armyworm larvae (Spodoptera frugiperda).
After 7 days mortality in % is determined. 100% means all caterpillars have been killed and 0% means none of the caterpillars have been killed.

[6] = tested on: green peach aphid (Myzus persicae); experiment: Myzus persicae spray test; settings: foliar, 120 h, Chinese cabbage leaf disks, after 5 days
Procedure: Myzus persicae—Spray Test • Solvent: 78.0 parts by weight acetone • 1.5 parts by weight dimethylformamide • Emulsifier: alkylarylpolyglycol ether
as §3
Chinese cabbage (Brassica pekinensis) leaf disks infected with all instars of the green peach aphid (Myzus persicae), are sprayed with a preparation of the active ingredient of the desired concentration.
as §2

[7] = tested on: larvae of the southern green stink bug (Nezara viridula); experiment: Nezara viridula spray test; settings: in Hordeum vulgare, 96 h
Procedure: Nezara viridula—Spray Test • Solvent: 78.0 parts by weight of acetone • 1.5 parts by weight of dimethylformamide • Emulsifier: alkylarylpolyglycol ether
To produce a suitable preparation of active compound, 1 part by weight of active compound is mixed with the stated amount of solvent, and the concentrate is diluted with water, containing an emulsifier concentration of 1000 ppm, to the desired concentration. Further test concentrations are prepared by dilution with emulsifier containing water.
Barley plants (Hordeum vulgare) are sprayed with a test solution containing the desired concentration of the active ingredient and are infested with larvae of the southern green stink bug (Nezara viridula).
After 4 days mortality in % is determined. 100% means all the stink bugs have been killed; 0% means none of the stink bugs have been killed.

[8] = tested on: adult flies Musca domestica strain WHO-N; experiment: Musca domestica test (MUSCDO surface treatment & contact assay); settings: surface concentration 20 mg/m^2, 30 min exposure, 24 hours after contact, read-out: efficacy (mortality)
Procedure: Musca domestica Test (MUSCDO Surface Treatment & Contact Assay) • Solvent: Aceton+2000 ppm rapeseed oil methyl ester (RME)
In order to produce a sufficient, active ingredient containing solution it is necessary to solve the test compound in the solvent-mix (acetone at 2 mg/ml/RME 2000 ppm). This solution is pipetted onto a glazed tile and after evaporation of the acetone, adult flies of the species Musca domestica strain WHO-N are placed onto the dried surface. The exposure time is 30 minutes.
Mortality in percent (%) is determined 24 hours after contact of the insects to the treated surface. 100% mortality means that all tested insects are dead, whereas 0% means that no insect died.

[9] = tested on: Rhipicephalus microplus larvae (strain Parkhurst, resistant against synthetic pyrethroids); experiment: Rhipicephalus (Boophilus) microplus in-vitro contact test, larval cattle tick; settings: 5 μg/cm^2 (=500 g/ha), after 48 hours, read-out: efficacy (larvae dead or moribund)
Procedure: Rhipicephalus (Boophilus) Microplus—In-Vitro Contact Tests Larval Cattle Tick (Strain Parkhurst, Resistant Against Synthetic Pyrethroids)
9 mg compound is solved in 1 mL acetone and diluted with acetone to the desired concentration. 250 μL of the test solution is filled in 25 mL glass test tubes and homogeneously distributed on the inner walls by rotation and tilting on a shaking device (2 h at 30 rpm). With a compound concentration of 900 ppm, an inner surface of 44.7 cm^2 and a homogeneous distribution, a dose of 5 μg/cm^2 is achieved.
After the solvent has evaporated, each test tube is filled with 20-50 cattle tick larvae (Rhipicephalus microplus), closed with a perforated lid and incubated in a horizontal position at 85% relative humidity and 27° C. in an incubator. After 48 hours efficacy is determined. The larvae are patted on the ground of the tubes and negative geotactic behavior is recorded.
An efficacy of 100% means all larvae are dead or moribund; 0% means no larvae are dead or moribund.

Row | Compound | pest or weed control at 0.004 mg [1] | mortality at 100 ppm [2] | pest or weed control at 32 µg/disc, 100 g/ha [3] | mortality at 4 ppm [4] | mortality at 100 g/ha [5] | mortality at 100 g/ha [6] | mortality at 500 g/ha [7] | mortality at 100 g/ha [7] | mortality at 20 mg/m2 [8] | pest or weed control at 5 µg/cm2 [9]
1 | CC(NC(=O)c1cc(Br)cc(Br)c1)c1ncnn1-c1ncc(C#N)s1 (stereo not drawn) [I-27] | 100% | 100% | 100% | – | – | – | – | – | – | –
2 | C[C@H](NC(=O)c1cc(Cl)cc(S(C)(=O)=O)c1)c1nc(C2CC2)nn1-c1ncc(C#N)s1 [I-40, 3-chloro-N-{(1S)-1-[1-(5-cyano-1,3-thiazol-2-yl)-3-cyclopropyl-1H-1,2,4-triazol-5-yl]ethyl}-5-(methylsulfonyl)benzamide] | – | – | 80% | 90% | 100% | – | – | – | – | –
3 | C[C@H](NC(=O)c1cc(Cl)cc(S(=O)(=O)C2CC2)c1)c1nc(C2CC2)nn1-c1ncc(C#N)s1 [I-42] | – | – | 100% | 100% | 100% | – | – | – | – | –
4 | C[C@H](NC(=O)c1cc(Cl)cc(S(=O)(=O)C2CC2)c1)c1ncnn1-c1ncc(C#N)s1 [I-46] | – | – | 100% | – | 100% | 90% | 100% | – | – | –
5 | C[C@H](NC(=O)c1cc(C(F)F)cc(S(=O)(=O)C2CC2)c1)c1ncnn1-c1ncc(C#N)s1 [I-51] | – | – | – | – | 100% | 90% | 100% | 100% | – | –
6 | C[C@H](NC(=O)c1cc(Cl)cc(Br)c1)c1ncnn1-c1ncc(C#N)s1 [I-59] | – | – | 100% | – | 100% | – | – | – | 80 to 100% | –
7 | Cc1nc([C@H](C)NC(=O)c2cc(Cl)cc(C(F)(F)F)c2)n(-c2ncc(C(=O)NC3CC3)s2)n1 [I-66] | 100% | – | 100% | 100% | 100% | 90% | – | – | – | 100%
8 | Cc1nc([C@H](C)NC(=O)c2cc(Cl)cc(C(F)(F)F)c2)n(-c2ncc(C(=O)NCC3CC3)s2)n1 [I-67] | 100% | – | 100% | 100% | 100% | – | – | – | – | 100%
9 | Cc1nc([C@H](C)NC(=O)c2cncc(C(F)(F)F)c2)n(-c2ncc(C(=O)N(C)CC#N)s2)n1 [I-73] | – | – | – | 100% | – | 90% | – | – | – | 100%
10 | Cc1nc([C@H](C)NC(=O)c2cc(Cl)cc(S(=O)(=O)C3CC3)c2)n(-c2ncc(C(=O)N(C)CC#N)s2)n1 [I-74] | – | – | – | 100% | – | 90% | – | – | – | –
11 | Cc1nc([C@H](C)NC(=O)c2cc(Cl)cc(S(C)(=O)=O)c2)n(-c2ncc(C(=O)N(C)C)s2)n1 [I-78] | – | – | – | 100% | – | – | – | – | – | –
12 | Cc1nc([C@H](C)NC(=O)c2cc(Cl)cc(S(C)(=O)=O)c2)n(-c2ncc(C(=O)N(C)CC#N)s2)n1 [I-79] | – | – | – | 100% | – | – | – | – | – | –
13 | Cc1nc([C@H](C)NC(=O)c2cc(Cl)cc(I)c2)n(-c2ncc(C(=O)N(C)CC#N)s2)n1 [I-81] | – | – | 100% | 100% | 100% | – | – | – | – | 100%
14 | C[C@H](NC(=O)c1cc(OC(F)F)cc(OC(F)(F)F)c1)c1ncnn1-c1ncc(C#N)s1 [I-100] | – | – | 100% | – | 100% | 90% | 100% | 100% | – | –
15 | C[C@H](NC(=O)c1cc(C(F)(F)F)cc(S(C)(=O)=O)c1)c1nc(C2CC2)nn1-c1ncc(C#N)s1 [I-103] | – | – | 100% | – | 100% | – | 90% | – | 80 to 100% | –
16 | CNC(=O)c1cnc(-n2ncnc2[C@H](C)NC(=O)c2cc(OC(F)F)cc(OC(F)F)c2)s1 [I-112] | – | – | 100% | – | 100% | 100% | 100% | 100% | – | –
17 | CNC(=O)c1cnc(-n2ncnc2[C@H](C)NC(=O)c2cc(Cl)cc(S(=O)(=O)C(F)F)c2)s1 [I-114] | – | – | 100% | – | 100% | 90% | 100% | 100% | – | –
18 | CNC(=O)c1cnc(-n2ncnc2[C@H](C)NC(=O)c2cc(C(F)F)cc(C(F)F)c2)s1 [I-137] | – | – | 100% | – | 100% | 90% | 100% | – | – | –
19 | C[C@H](NC(=O)c1cc(OC(F)(F)F)cc(S(=O)(=O)C(F)F)c1)c1ncnn1-c1ncc(C(=O)N(C)C)s1 [I-171] | – | – | 100% | – | 100% | 100% | 100% | – | – | –
